In PMC5478857, “Metabolic Products of Linalool and Modulation of GABAA Receptors” (Frontiers in Chemistry, 2017):

Test system: T1, GABAA receptor α1β2γ2
T1 construct: gene GABRA1; α1β2γ2 heteromer transiently expressed in HEK293 cells; with GABAA receptor β2 and γ2 subunits
Assay: whole-cell patch clamp, […] co-applied with […] GABA ([…] of GABA current, P < […])
Format: cell-based

SMILES: C=CC(C)(O)CCC=C(C)C (stereo not shown) [Linalool, 3,7-dimethyl-1,6-octadiene-3-ol]
- % of GABA current at 2 mM: 160 ± 14 % of GABA current at 2 mM
